From patent publication US6046238A, “Method for treating or preventing the spread of acne vulgaris” (TriStrata, Inc., priority 1999, dated 2000)

Assay: topical treatment of nail infections
Type: in vivo, human
Conditions: non-synergistic composition, twice daily
From the text: The participating subjects in the present study were instructed to apply twice daily the composition containing phenyl 2-acetoxyethanoic acid or diphenyl 2-acetoxyethanoic acid with or without clotrimazole as an additional antimicrobial agent.
In order to determine the antimicrobial effect of an aryl 2-acetoxyethanoicacid, a standard test method of Minimum Inhibitory Concentration (MIC) against the growth of 10 bacteria was used. To determine a prophylactic effect against the development of, as well as a topical effect in the treatment of, body foul door, eleven human subjects participated in this study. […] Scientific and test results are overviewed as follows.

## CC(=O)OC(C(=O)O)c1ccccc1 (stereo not shown) [phenyl 2-acetoxyethanoic acid]
  disappearance of nail infections: usually disappeared within one to several months
